Measurements published in US7713994B2 (Wyeth LLC, priority 2005, dated 2010).
Read-outs that look alike come from different tables or passages of the source.

How the values were obtained:
[1] = molecular target: T1, cyclin D1/cdk 4 enzyme (Homo sapiens, UniProt P11802); experiment: CDK4 ELISA kinase assay (phospho-Rb ser 795 detection); format: biochemical
T1 construct: made in house; host or cells: Sf9 insect cells, recombinant baculovirus
In short: (§1)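 Wells were coated overnight with GST-Rb C-terminal fragment, then blocked. Compound (10 ug/ml final) and cyclin/CDK enzyme from baculovirus-infected Sf9 cells with 200 μM ATP reacted 1 h at 30° C. Ser795 phosphorylation was detected by ELISA at 450 nm.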

[2] = molecular target: T2, cyclin B/CDK1 enzyme (Homo sapiens, UniProt P06493); experiment: CDK1 ELISA kinase assay (phospho-Rb ser 795 detection); format: biochemical
T2 construct: purchased New England BioLabs; host or cells: Sf9 insect cells, recombinant baculovirus
In short: as §1

[3] = molecular target: T3, cyclin E/CDK2 enzyme (Homo sapiens, UniProt P24941); experiment: CDK2 ELISA kinase assay (phospho-Rb ser 795 detection); format: biochemical
T3 construct: made in house; host or cells: Sf9 insect cells, recombinant baculovirus
Method: • 1. High-binding ELISA microtiter plates (Costar) were coated with 40 μl of the kinase substrate (GST fusion of C-terminal fragment of the retinoblastoma susceptibility gene product) diluted to 10 μg/ml in tris-buffered saline (TBS), overnight at 4° C. • 2. Non-specific binding sites were blocked for 1 hour at 4° C. with Superblock in TBS (Pierce), and the plates rinsed with water. • 3. For the screen, 1.5 μl of test compound (200 μg/ml stock in 20% DMSO/20 mM HEPES, pH 7.5) was added to each well. Final dose of the test compound in the assay was 10 ug/ml. […] The kinase reaction (30 μl) was dispensed into each well. Reactions contained 200 μM ATP, 0.5 mg/ml bovine serum albumin (BSA; Sigma), and 0.5 μl partially purified cyclin D1/cdk 4 enzyme*. The enzyme complex is expressed in insect cells (Sf9) infected with recombinant baculovirus and partially purified using ammonium sulfate fractionation. Reaction volumes were adjusted to 30 μl with kinase assay buffer (50 mM HEPES, pH 7.5, 10 mM MgCl2, 5% glycerol, 10 mM 2-mercaptoethanol). • *: For CDK2 assay, 1.0 μl cyclin E/CDK2 enzyme (diluted 1:1000 in kinase assay buffer) was used. The enzyme is isolated from insect cells (Sf9) infected with recombinant baculovirus and partially purified using ammonium sulfate fractionation. For CDK1 assay, 0.08 μl cyclin B/CDK1 enzyme [New England BioLabs; the enzyme is isolated from insect cells (Sf9) infected with recombinant baculovirus carrying human cdc 2 and human cyclin B] was used.
[…] • 5. Plates were incubated at 30° C. for 1 hour. • 6. The reaction mixture was removed by aspiration and replaced with 250 μl TBS containing 0.1% Tween-20 and 5% nonfat dry milk (blocking buffer). The plates were incubated at 4° C. for 1 hour. • 7. The blocking buffer was removed and replaced with 50 μl of the primary antibody [anti-phospho-Rb ser 795 (New England BioLabs) diluted 1:1000 in blocking buffer]. Incubation was at 4° C. for 16-20 hours. • 8. The wells were rinsed 3 times with 250 μl of TBS containing 0.1% Tween-20 followed by the addition of 50 μl of secondary antibody [anti-rabbit IgG conjugated to horseradish peroxidase (Amersham Life Science) diluted 1:1000 in blocking buffer]. • 9. After a 1 hour incubation at room temperature, the wells were rinsed 3 times with 250 μl of TBS/0.1% Tween 20. • 10. TMB (3,3′,5,5′-tetramethylbenzidine dihydrochloride) substrate solution (100 μl; Pierce) was added to each well and the color development reaction allowed to proceed 5-10 minutes at room temperature with shaking. The reaction was stopped by the addition of 2N sulfuric acid (100 μl) and the absorbance values read at 450 nm in a microplate reader (Molecular Devices). Analysis of Results: • 1. The percentage of the absorbance value in wells containing the test compound relative to control wells (no test agent) was determined. • 2. IC50 values of selected compounds were determined from inhibition curves, after subtracting background values (no substrate).

[4] = test system: LoVo; experiment: Cytotoxicity assay (SRB), LoVo; format: cell-based; details: Homo sapiens, LoVo, 72 h, LoVo cells, SRB, read-out: In Vitro Cellular Activity IC50 LOVO
In short: (§2)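 Cells were seeded overnight in RPMI 1640 with 5% FBS at 37 °C, 7% CO2 (12000/well BT474, 4000 HCT-116, 6000 LoVo, 6000 MCF-7), then exposed to compound dilutions for 3 days (6 days for BT474). Survival versus untreated controls was measured by TCA fixation and SRB staining at 540 nm.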

[5] = test system: BT474; experiment: Cytotoxicity assay (SRB), BT474; format: cell-based
In short: as §2

[6] = test system: HCT-116; experiment: Cytotoxicity assay (SRB), HCT-116; format: cell-based; details: Homo sapiens, HCT-116, 72 h, HCT116 cells, SRB, read-out: In Vitro Cellular Activity IC50 HCT116
In short: as §2

[7] = test system: MCF-7; experiment: Cytotoxicity assay (SRB), MCF-7; format: cell-based; details: Homo sapiens, MCF7, 72 h, MCF-7 cells, SRB, read-out: In Vitro Cellular Activity IC50 MCF-7
In short: as §2

[8] = In Vitro Enzyme Assays, 200 μM ATP, read-out: CDK4 IC50
[9] = In Vitro Enzyme Assays, read-out: CDK1 IC50
[10] = In Vitro Enzyme Assays, read-out: CDK2 IC50
[11] = Homo sapiens, BT-474, 144 h, BT474 cells, SRB, 6 days; read-out: In Vitro Cellular Activity IC50 BT474
[12] = In Vitro Enzyme Assay, cyclin D1/cdk 4, read-out: CDK4 IC50
[13] = In Vitro Enzyme Assay, cyclin B/CDK1, read-out: CDK1 IC50
[14] = In Vitro Enzyme Assay, cyclin E/CDK2, read-out: CDK2 IC50
[15] = Homo sapiens, BT-474, 144 h, BT474 cells, 6 days, SRB; read-out: In Vitro Cellular Activity IC50 BT474
[16] = In Vitro Enzyme Assay, read-out: CDK4 IC50
[17] = In Vitro Enzyme Assay, read-out: CDK1 IC50
[18] = In Vitro Enzyme Assay, read-out: CDK2 IC50

T1 sequence (P11802 whole entry, species assumed): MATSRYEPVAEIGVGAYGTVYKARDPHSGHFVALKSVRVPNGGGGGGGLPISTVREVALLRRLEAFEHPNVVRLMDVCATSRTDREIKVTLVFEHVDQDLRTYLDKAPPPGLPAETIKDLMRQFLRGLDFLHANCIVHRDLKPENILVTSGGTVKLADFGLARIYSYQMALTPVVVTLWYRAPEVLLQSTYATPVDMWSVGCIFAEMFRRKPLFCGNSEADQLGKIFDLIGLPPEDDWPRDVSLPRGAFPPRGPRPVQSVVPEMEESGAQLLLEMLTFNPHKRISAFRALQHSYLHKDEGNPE
T1 sequence (P24385 whole entry partner, species assumed): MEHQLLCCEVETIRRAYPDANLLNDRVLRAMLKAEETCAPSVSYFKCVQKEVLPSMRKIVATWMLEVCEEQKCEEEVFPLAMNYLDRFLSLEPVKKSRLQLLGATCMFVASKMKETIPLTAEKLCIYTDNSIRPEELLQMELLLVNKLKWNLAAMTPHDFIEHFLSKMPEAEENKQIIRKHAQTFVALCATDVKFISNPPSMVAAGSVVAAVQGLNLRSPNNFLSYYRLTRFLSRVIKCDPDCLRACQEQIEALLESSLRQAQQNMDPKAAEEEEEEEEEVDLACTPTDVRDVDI
T2 sequence (P06493 whole entry): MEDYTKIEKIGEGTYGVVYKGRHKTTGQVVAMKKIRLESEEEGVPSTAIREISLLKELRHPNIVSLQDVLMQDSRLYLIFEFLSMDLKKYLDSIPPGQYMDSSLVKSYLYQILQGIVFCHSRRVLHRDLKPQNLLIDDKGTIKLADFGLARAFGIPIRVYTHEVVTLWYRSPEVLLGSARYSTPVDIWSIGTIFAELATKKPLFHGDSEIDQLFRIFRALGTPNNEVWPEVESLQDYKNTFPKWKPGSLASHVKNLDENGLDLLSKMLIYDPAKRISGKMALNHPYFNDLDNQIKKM
T2 sequence (P14635 whole entry partner): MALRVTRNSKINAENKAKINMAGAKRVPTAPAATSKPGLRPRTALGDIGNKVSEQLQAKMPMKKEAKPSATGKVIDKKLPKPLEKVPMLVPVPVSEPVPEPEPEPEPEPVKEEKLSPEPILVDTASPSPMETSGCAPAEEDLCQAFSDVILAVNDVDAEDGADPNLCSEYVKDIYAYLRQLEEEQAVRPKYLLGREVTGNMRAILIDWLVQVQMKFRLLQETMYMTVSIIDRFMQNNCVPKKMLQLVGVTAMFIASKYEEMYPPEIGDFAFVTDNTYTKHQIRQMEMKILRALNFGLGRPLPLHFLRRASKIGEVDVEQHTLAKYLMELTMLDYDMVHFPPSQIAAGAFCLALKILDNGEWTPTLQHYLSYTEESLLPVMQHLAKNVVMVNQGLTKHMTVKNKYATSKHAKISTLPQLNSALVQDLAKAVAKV

IC50 [1, 12] [µM] | IC50 [2, 13] [µM] | IC50 [3, 14] [µM] | Compound | IC50 ([6]; 3 days) [µM] | IC50 ([4]; 3 days) [µM] | other results
 |  |  | O=C1NC(=O)c2ccc(Nc3ccccc3)cc2/C1=C/Nc1ccc(CN2CCCCC2)cc1 [Example 128, (4Z)-6-Anilino-4-({[4-(piperidin-1-ylmethyl)phenyl]amino}methylene)isoquinoline-1,3(2H,4H)-dione] |  |  | IC50 [1, 8]: 1.8 µM; IC50 [2, 9]: > 50 µM; IC50 [3, 10]: > 50 µM; IC50 ([4]; three days): 2.1 µM; IC50 [5, 11]: 3.1 µM
 |  |  | C[C@@H]1CN(c2ccc(N/C=C3\C(=O)NC(=O)c4ccc(I)cc43)cc2)C[C@H](C)N1C [Example 234, (4Z)-6-Iodo-4-[({4-[(3R,5S)-3,4,5-trimethylpiperazin-1-yl]phenyl}amino)methylene]-isoquinoline-1,3(2H,4H)-dione] |  |  | IC50 [1, 8]: 2.8 µM; IC50 [2, 9]: > 50 µM; IC50 [3, 10]: > 50 µM; IC50 ([4]; three days): 3.4 µM; IC50 [5, 11]: 2.5 µM
 |  |  | O=C1NC(=O)c2ccc(I)cc2/C1=C/Nc1ccc2ncccc2c1 [Example 272, (4Z)-6-Iodo-4-[(quinolin-6-ylamino)methylene]isoquinoline-1,3(2H,4H)-dione] |  |  | IC50 ([6]; three days): 4.2 µM; IC50 [2, 9]: > 50 µM; IC50 [3, 10]: 39.7 µM; IC50 ([4]; three days): 8.9 µM; IC50 [5, 11]: 7.2 µM; IC50 ([7]; three days): 3.1 µM
0.2 | 17.6 | 17.6 | O=C(O)C=Cc1ccc(-c2ccc3c(c2)C(=CNCc2ccc(O)c(O)c2)C(=O)NC3=O)cc1 [Example 788, 3-(4-{4-[(3,4-Dihydroxy-benzylamino)-methylene]-1,3-dioxo-1,2,3,4-tetrahydro-isoquinolin-6-yl}-phenyl)-acrylic acid] |  |  | 
0.4 | > 50 | 27.7 | O=C(O)C=Cc1cccc(-c2ccc3c(c2)C(=CNCc2ccc(O)c(O)c2)C(=O)NC3=O)c1 [Example 789, 3-(3-{4-[(3,4-Dihydroxy-benzylamino)-methylene]-1,3-dioxo-1,2,3,4-tetrahydro-isoquinolin-6-yl}-phenyl)-acrylic acid] |  |  | 
0.81 | 27.1 | 27.1 | O=C(O)CCc1ccc(-c2ccc3c(c2)C(=CNCc2ccc(O)c(O)c2)C(=O)NC3=O)cc1 [Example 819, 3-(4-{4-[(3,4-Dihydroxy-benzylamino)-methylene]-1,3-dioxo-1,2,3,4-tetrahydro-isoquinolin-6-yl}-phenyl)-propionic acid] |  |  | 
 | > 50 | 25.3 | COc1ccc(NC=C2C(=O)NCc3cc(Br)ccc32)cc1 [Example 841, 7-Bromo-4-[(4-methoxy-phenylamino)-methylene]-1,4-dihydro-2H-isoquinolin-3-one] | 36 | 34 | IC50 [5, 15]: 47.8 µM
2.3 | > 50 | > 50 | CN1CCN(c2ccc(NC=C3C(=O)NCc4cc(Br)ccc43)cc2)CC1 [Example 842, 7-Bromo-4-{[4-(4-methyl-piperazin-1-yl)-phenylamino]-methylene}-1,4-dihydro-2H-isoquinolin-3-one] | 4.5 | 5.7 | IC50 [5, 15]: 7.2 µM
0.79 | 2.7 | 10.3 | CN1CCN(c2ccc(NC=C3C(=O)NC(=O)c4ccc(-c5ccc6c(ccn6CC(N)=O)c5)cc43)cc2)CC1 [Example 851, 2-[5-(4-{[4-(4-Methyl-piperazin-1-yl)-phenylamino]-methylene}-1,3-dioxo-1,2,3,4-tetrahydro-isoquinolin-6-yl)-indol-1-yl]-acetamide] |  |  | 
0.12 | > 50 | > 50 | CN1CCN(c2ccc(NC=C3C(=O)NC(=O)c4ccc(-c5ccn(CC(N)=O)c5)cc43)cc2)CC1 [Example 853, 2-[3-(4-{[4-(4-Methyl-piperazin-1-yl)-phenylamino]-methylene}-1,3-dioxo-1,2,3,4-tetrahydro-isoquinolin-6-yl)-pyrrol-1-yl]-acetamide] |  |  | 
0.61 | > 50 | > 50 | CCN(CC)CCn1ccc(-c2ccc3c(c2)C(=CNc2ccc(N4CCN(C)CC4)cc2)C(=O)NC3=O)c1 [Example 854, 6-[1-(2-Diethylamino-ethyl)-1H-pyrrol-3-yl]-4-{[4-(4-methyl-piperazin-1-yl)-phenylamino]-methylene}-4H-isoquinoline-1,3-dione] |  |  | 
 |  |  | CONCCCc1ccc(N/C=C2\C(=O)NC(=O)c3ccc(Br)cc32)cc1 [Example 875, (4Z)-6-bromo-4-[({4-[3-(methoxyamino)propyl]phenyl}amino)methylene]isoquinoline-1,3(2H,4H)-dione] | 9.5 | 12.5 | IC50 [1, 16]: 1.9 µM; IC50 [2, 17]: 15.1 µM; IC50 [3, 18]: 2.8 µM; IC50 ([7]; 3 days): 10.3 µM
 |  |  | CN(C)CCCN(C)c1ccc(N/C=C2\C(=O)NC(=O)c3ccc(Br)cc32)cc1 [Example 876, (4Z)-6-Bromo-4-[({4-[[3-(dimethylamino)propyl](methyl)amino]phenyl}amino)methylene]isoquinoline-1,3(2H,4H)-dione] | 4.2 | 8.6 | IC50 [1, 16]: 14.4 µM; IC50 [2, 17]: > 50 µM; IC50 [3, 18]: > 50 µM; IC50 ([7]; 3 days): 5.3 µM
 |  |  | CN1CCC(Oc2ccc(N/C=C3\C(=O)NC(=O)c4ccc(Br)cc43)cc2)C1 (stereo not drawn) [Example 877, (4Z)-6-Bromo-4-[({4-[(1-methylpyrrolidin-3-yl)oxy]phenyl}amino)methylene]isoquinoline-1,3(2H,4H)-dione] | 3.9 | 6.2 | IC50 [1, 16]: 42.5 µM; IC50 [2, 17]: > 50 µM; IC50 [3, 18]: > 50 µM; IC50 ([7]; 3 days): 4.4 µM
 |  |  | (4Z)-6-Bromo-4-{[(3-hydroxy-4-methoxybenzyl)amino)methylene}isoquinoline-1,3(2H,4H-dione [Example 50] |  |  | IC50 [1, 8]: 0.03 µM; IC50 [2, 9]: > 50 µM; IC50 [3, 10]: > 50 µM
